Source: patent US11045561B2, “Rotaxane-type probe for molecular imaging” (Rhode Island Council on Postsecondary Education, priority 2017, dated 2021)

How the values were obtained:
[1] = HyperCEST detection by hyperpolarized 129Xe NMR (fritted phantom, 3T clinical scanner); conditions: 10 mM in water; saturation pulse at about +128 ppm; 3T scanner
Protocol: FIGS. 7A and 7B show HyperCEST data for rotaxane-type biosensors: (FIG. 7A) cucurbiturils and pillararene-based; (FIG. 7B) cycodextrin-based. [Note: ^a Samples were dissolved in water (2 mL, 10 mM), and 1D ^129Xe spectrum were initially recorded and then a series of HyperCEST spectra were sequentially recorded using a series of off resonance pulses varying by 5 ppm. ^b Performed in H2O/DMSO. ^c Performed in CHCl3.]
For the HP-Xe studies, we used a custom-built fritted phantom inside of a custom dual tuned ^1H/^129Xe radiofrequency (RF) coil to acquire all free induction decay (FID) spectra (FIG. 6). Rotaxane-type biosensor molecules, dissolved in water and/or DMSO, were placed inside the fritted phantom, and HP ^129Xe was introduced below the fritted phantom that created microbubbles that rose vertically through the sample. A series of saturation pre-pulses at a variety of chemical shift offsets were loaded into the user interface software of the […] Achieva 3T MR scanner. Spectra with different saturation pre-pulses were acquired approximately every six seconds. […]
Nuclear Magnetic Resonance (NMR) HyperCEST Detection. […] The RF pulse length was determined with the use of the Ref B1, a parameter of Philips MR scanners. […] In this study, the B1 field strength was determined by the scanner to be 15.9 μT. […]

[2] = cited from earlier work; for affinity for xenon as observed by 129Xe NMR: aqueous media, room temperature for cyclodextrins

Compound | affinity for xenon as observed by 129Xe NMR [2] | other results
O=C1N2CN3C(=O)N4CN5C(=O)N6CN7C(=O)N8CN9C(=O)N%10CN%11C(=O)N%12CN1C1C2N2CN%13C(=O)N(CN%14C(=O)N(CN%15C(=O)N(CN%16C(=O)N(CN%17C(=O)N(CN1C2=O)C%12C%11%17)C%10C9%16)C8C7%15)C6C5%14)C4C3%13 (stereo not shown) [CB6, cucurbit[6]uril] |  | HyperCEST depletion (maximum) [1]: 67%
O=C1N2CN3C(=O)N4CN5C(=O)N6CN7C(=O)N8CN9C(=O)N%10CN%11C(=O)N%12CN%13C(=O)N%14CN%15C(=O)N%16CN1C1C2N2CN%17C(=O)N(CN%18C(=O)N(CN%19C(=O)N(CN%20C(=O)N(CN%21C(=O)N(CN%22C(=O)N(CN%23C(=O)N(CN1C2=O)C%16C%15%23)C%14C%13%22)C%12C%11%21)C%10C9%20)C8C7%19)C6C5%18)C4C3%17 (stereo not shown) [CB[8], cucurbit[8]uril] | do not show any affinity for xenon | 
COc1cc2c3cc1OCCOc1cc4c(cc1OC)Cc1cc5c(OC)cc1Cc1cc(c(OC)cc1C4)OCCOc1cc(c(cc1OC)C3)Cc1cc(OC)c(cc1C2)OCCO5 [Cryptophane-A] |  | xenon residence time ([2]; room temperature): 0.5 to 8 ms
OC[C@H]1O[C@@H]2O[C@H]3[C@H](O)[C@@H](O)[C@@H](O[C@H]4[C@H](O)[C@@H](O)[C@@H](O[C@H]5[C@H](O)[C@@H](O)[C@@H](O[C@H]6[C@H](O)[C@@H](O)[C@@H](O[C@H]7[C@H](O)[C@@H](O)[C@@H](O[C@H]1[C@H](O)[C@H]2O)O[C@@H]7CO)O[C@@H]6CO)O[C@@H]5CO)O[C@@H]4CO)O[C@@H]3CO [α-CD, α-cyclodextrin] | either fail to bind xenon in aqueous media, or the reversible binding has too fast of an exchange rate to be detectable | 
OC[C@H]1O[C@@H]2O[C@H]3[C@H](O)[C@@H](O)[C@@H](O[C@H]4[C@H](O)[C@@H](O)[C@@H](O[C@H]5[C@H](O)[C@@H](O)[C@@H](O[C@H]6[C@H](O)[C@@H](O)[C@@H](O[C@H]7[C@H](O)[C@@H](O)[C@@H](O[C@H]8[C@H](O)[C@@H](O)[C@@H](O[C@H]1[C@H](O)[C@H]2O)O[C@@H]8CO)O[C@@H]7CO)O[C@@H]6CO)O[C@@H]5CO)O[C@@H]4CO)O[C@@H]3CO [β-CD, β-cyclodextrin] | either fail to bind xenon in aqueous media, or the reversible binding has too fast of an exchange rate to be detectable | 
OC[C@H]1O[C@@H]2O[C@H]3[C@H](O)[C@@H](O)[C@@H](O[C@H]4[C@H](O)[C@@H](O)[C@@H](O[C@H]5[C@H](O)[C@@H](O)[C@@H](O[C@H]6[C@H](O)[C@@H](O)[C@@H](O[C@H]7[C@H](O)[C@@H](O)[C@@H](O[C@H]8[C@H](O)[C@@H](O)[C@@H](O[C@H]9[C@H](O)[C@@H](O)[C@@H](O[C@H]1[C@H](O)[C@H]2O)O[C@@H]9CO)O[C@@H]8CO)O[C@@H]7CO)O[C@@H]6CO)O[C@@H]5CO)O[C@@H]4CO)O[C@@H]3CO [γ-CD, γ-cyclodextrin] | either fail to bind xenon in aqueous media, or the reversible binding has too fast of an exchange rate to be detectable | 
cucurbit[7]uril [CB[7]] | do not show any affinity for xenon | 
